System: 996289-038-R-J1-PDC spheroid viability
Assay: Anticancer human tumor 996289-038-R-J1-PDC patient-derived colon adenocarcinoma cell line growth inhibition [PI3K]
Conditions: spheroids with HUVEC and MSC; for IC50: curve of first compound; for viability, T/C: stronger effect = lower value
Outline: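 Tumor cells grown as multi-cell spheroids with HUVEC endothelial cells and MSC fibroblast-like stroma were treated with targeted agents combined with inavolisib, alpelisib, duvelisib or copanlisib. Doses fell in half-log steps from near clinical Cmax, else from 10 microM. Viability was measured.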

[1] = second compound 0.00316 µM, first compound 0.0316 µM
[2] = second compound 0.00316 µM, first compound 0.1 µM
[3] = second compound 0.00316 µM, first compound 0.316 µM
[4] = second compound 0.00316 µM, first compound 1 µM
[5] = second compound 0.00316 µM, first compound 3.16 µM
[6] = second compound 0.00316 µM, first compound 10 µM
[7] = second compound 0.01 µM, first compound 0.0316 µM
[8] = second compound 0.01 µM, first compound 0.1 µM
[9] = second compound 0.01 µM, first compound 0.316 µM
[10] = second compound 0.01 µM, first compound 1 µM
[11] = second compound 0.01 µM, first compound 3.16 µM
[12] = second compound 0.01 µM, first compound 10 µM
[13] = second compound 0.0316 µM, first compound 0.0316 µM
[14] = second compound 0.0316 µM, first compound 0.1 µM
[15] = second compound 0.0316 µM, first compound 0.316 µM
[16] = second compound 0.0316 µM, first compound 1 µM
[17] = second compound 0.0316 µM, first compound 3.16 µM
[18] = second compound 0.0316 µM, first compound 10 µM
[19] = second compound 0.1 µM, first compound 0.0316 µM
[20] = second compound 0.1 µM, first compound 0.1 µM
[21] = second compound 0.1 µM, first compound 0.316 µM
[22] = second compound 0.1 µM, first compound 1 µM
[23] = second compound 0.1 µM, first compound 3.16 µM
[24] = second compound 0.1 µM, first compound 10 µM
[25] = second compound 0.316 µM, first compound 0.0316 µM
[26] = second compound 0.316 µM, first compound 0.1 µM
[27] = second compound 0.316 µM, first compound 0.316 µM
[28] = second compound 0.316 µM, first compound 1 µM
[29] = second compound 0.316 µM, first compound 3.16 µM
[30] = second compound 0.316 µM, first compound 10 µM
[31] = second compound 1 µM, first compound 0.0316 µM
[32] = second compound 1 µM, first compound 0.1 µM
[33] = second compound 1 µM, first compound 0.316 µM
[34] = second compound 1 µM, first compound 1 µM
[35] = second compound 1 µM, first compound 3.16 µM
[36] = second compound 1 µM, first compound 10 µM
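Note: spheroids exposed to compounds for seven days before viability read.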
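Throughout, for viability, T/C: luminescence used as a proxy for viable cell amount; percent viability relative to DMSO vehicle control as 100%.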

`C#Cc1c(F)ccc2cc(O)cc(-c3ncc4c(N5CC6CCC(C5)N6)nc(OCC56CCCN5CC(F)C6)nc4c3F)c12` (centres undefined) + COc1c(OCCCN2CCOCC2)ccc2c3n(c(=NC(=O)c4cnc(N)nc4)nc12)CCN3 showed an IC50 (second compound 0.00316 µM) of 0.807 µM, an IC50 (second compound 0.01 µM) of 0.507 µM and an IC50 (second compound 0.0316 µM) of 0.231 µM. The IC50 (second compound 0.1 µM) was 0.0574 µM, the IC50 (second compound 0.316 µM) was under 0.0316 µM and the IC50 (second compound 1 µM) was under 0.0316 µM. The viability, T/C [1] was 91.4%, the viability, T/C [2] was 71.3% and the viability, T/C [3] was 60.9%. It also gave a viability, T/C [4] of 47.2%, a viability, T/C [5] of 39.9% and a viability, T/C [6] of 35.3%. It also gave a viability, T/C [7] of 79.8%, a viability, T/C [8] of 83.6% and a viability, T/C [9] of 55.4%. The viability, T/C [10] was 40.3%, the viability, T/C [11] was 31.1% and the viability, T/C [12] was 26.9%. It also gave a viability, T/C [13] of 68.7%, a viability, T/C [14] of 61.3% and a viability, T/C [15] of 45%. For the same compound, the viability, T/C [16] was 33.2%, the viability, T/C [17] was 25.8% and the viability, T/C [18] was 19%. It also gave a viability, T/C [19] of 55.1%, a viability, T/C [20] of 46% and a viability, T/C [21] of 29.6%. It also gave a viability, T/C [22] of 23.1%, a viability, T/C [23] of 16.4% and a viability, T/C [24] of 14.8%. For the same compound, the viability, T/C [25] was 35.3%, the viability, T/C [26] was 27.9% and the viability, T/C [27] was 19.7%. For the same compound, the viability, T/C [28] was 14%, the viability, T/C [29] was 10.6% and the viability, T/C [30] was 7.75%. For the same compound, the viability, T/C [31] was 15.9%, the viability, T/C [32] was 16.8% and the viability, T/C [33] was 11.1%. For the same compound, the viability, T/C [34] was 7.03%, the viability, T/C [35] was 5.65% and the viability, T/C [36] was 4.52%.

For `CC1(C)CCC(Nc2ncc(C(F)(F)F)c(-c3c[nH]c4c(P(C)(C)=O)c(C#N)ccc34)n2)CN1` (centres undefined) + COc1c(OCCCN2CCOCC2)ccc2c3n(c(=NC(=O)c4cnc(N)nc4)nc12)CCN3, the IC50 (second compound 0.00316 µM) was 5.54 µM, the IC50 (second compound 0.01 µM) was 5.12 µM and the IC50 (second compound 0.0316 µM) was 4.48 µM. It also gave an IC50 (second compound 0.1 µM) of 3.46 µM, an IC50 (second compound 0.316 µM) of under 0.0316 µM and an IC50 (second compound 1 µM) of under 0.0316 µM. For the same compound, the viability, T/C [1] was 106%, the viability, T/C [2] was 74.7% and the viability, T/C [3] was 80%. It also gave a viability, T/C [4] of 68.6%, a viability, T/C [5] of 86.3% and a viability, T/C [6] of 15%. For the same compound, the viability, T/C [7] was 91.2%, the viability, T/C [8] was 78.9% and the viability, T/C [9] was 75.2%. The viability, T/C [10] was 75.8%, the viability, T/C [11] was 76.4% and the viability, T/C [12] was 13.6%. For the same compound, the viability, T/C [13] was 71.8%, the viability, T/C [14] was 65.2% and the viability, T/C [15] was 63.7%. The viability, T/C [16] was 64.6%, the viability, T/C [17] was 66% and the viability, T/C [18] was 13%. It also gave a viability, T/C [19] of 59.5%, a viability, T/C [20] of 53.4% and a viability, T/C [21] of 52.1%. For the same compound, the viability, T/C [22] was 49.7%, the viability, T/C [23] was 53.7% and the viability, T/C [24] was 8.16%. It also gave a viability, T/C [25] of 34.6%, a viability, T/C [26] of 30.2% and a viability, T/C [27] of 34%. For the same compound, the viability, T/C [28] was 34%, the viability, T/C [29] was 28.5% and the viability, T/C [30] was 6.2%. The viability, T/C [31] was 17%, the viability, T/C [32] was 14.3% and the viability, T/C [33] was 15.9%. The viability, T/C [34] was 17%, the viability, T/C [35] was 15.1% and the viability, T/C [36] was 4.85%.

— PubChem BioAssay AID1963965 (Molecular Pharmacology Branch, DTP, NCI, 2024)
